The results in this text go back to US20190307820A1, “COMPOSITIONS AND METHODS OF USING STAT1/3 INHIBITORS WITH ONCOLYTIC HERPES VIRUS” (priority 2016, published 2019).

The subject of test [1] is ICP27. As to the kind of experiment: Western blot of ICP27 in HSV-1 infected microglia cells. It is filed as cell-based. As to conditions: for ICP27 expression: 1 μM C16, 24 hours. The procedure: FIG. 12B depicts an electrophoresis gel showing total proteins that were harvested from G2O7 infected microglia cells at 24 hours post treatment with either 1 μM of C16, 1 μM of Bay11, or 100 μM of AG. ICP27, ICP4, and […] expression was measured by western blot assay. U87 and MG co-culture were pretreated with 0.5 μM of C16 for 1 hour.
FIG. 12C depicts an electrophoresis gel showing total proteins that were harvested from HrR3 or KOS infected microglia cells at 24 hours post-treatment with 1 μM of PKR-i (C16). ICP27, ICP4, and […] expression was measured by western blot assay. U87 and MG co-culture were pretreated with 0.5 μM of C16 for 1 hour.
Total protein was harvested with sample buffer (125 mM Tris-HCL, 50% Glycerol, […] and 5% 2-mercaptoethanol) and boiled for 5 minutes. Protein samples were subjected to SDS-PAGE (8% gel), transferred to nitrocellulose membranes and blocked in 5% nonfat milk (Bio Rad) in TBS-Tween 20 (TBS-T) for 1 hour at room temperature. The membranes were then incubated with primary antibody against β-actin at 1:1000 (Cell Signaling, Danvers, Mass.) or anti-STAT1 antibody at 1:1000 (Cell Signaling, Danvers, Mass.) or anti-STAT3 antibody at 1:1000 (Cell Signaling, Danvers, Mass.) or anti-phospho STAT1 antibody (Tyr701) at 1:1000 (Cell Signaling, Danvers, Mass.) or anti-phospho STAT3 antibody (Tyr705) at 1:1500 (Cell Signaling, Danvers, Mass.) or anti-phosphor-eIF2a antibody (ser51) at 1:1000 (Cell Signaling, Danvers, Mass.) or anti-ICP27 antibody at 1:1000 (Abcam, Cambridge, Mass.) or anti-ICP4 antibody at 1:750 (Abcam, Cambridge, Mass.) for overnight at 4° C. The membranes were washed the next day with TBS-T three times and incubated with corresponding secondary antibody at 1:3000 (Perkim Elmer, Boston, Mass.), for 1 hour at room temperature. Membranes were washed with TBS-T three times before visualization using ECL reagent (Perkim Elmer, Boston, Mass.) and VersaDoc imaging system (Bio-Rad). Band density was measured by using ImageJ software (NIH, Bethesda, Md.). […]
In general terms: In western blotting, separated proteins are transferred to a membrane and probed.

For the next test, the system named is pSTAT3 (Tyr705). As to the kind of experiment: Western blot of pSTAT3 (Tyr705) in BV2 microglia cells. As to conditions: C16 1 μM. It is filed as cell-based, mouse. The procedure: BV2 cells were pre-treated with vehicle or C16 (1 μM) for 2 hours and then incubated with vehicle or oHSV-1 (G207) at an MOI of 1 or oHSV-1 and C16 combination for 24 hours. Total protein was harvested and subjected to western blot assay. β-actin expression was used for loading control (means±SE).
BV2 cells were treated with either vehicle or Lps (1 μg/ml) or Lps (1 μg/ml) with C16 (1 μM) for 24 hours. Total protein was harvested and subjected to western blot assay. β-actin expression was used for loading control (means±SE).
Total protein was harvested with sample buffer (125 mM Tris-HCL, 50% Glycerol, […] and 5% 2-mercaptoethanol) and boiled for 5 minutes. Protein samples were subjected to SDS-PAGE (8% gel), transferred to nitrocellulose membranes and blocked in 5% nonfat milk (Bio Rad) in TBS-Tween 20 (TBS-T) for 1 hour at room temperature. […] Band density was measured by using ImageJ software (NIH, Bethesda, Md.).

Another test concerns U373 cells. As to the kind of experiment: MTT cytotoxicity assay, U373 cells. The class given is cell-based. As to conditions: Homo sapiens, U373 MG, 72 hours, read-out: Inhibitory concentration 50% (IC50). The procedure: FIGS. 1A-1B are graphs that show an anti-tumor effect of nifuroxazide. (FIG. 1A) Cells were treated with indicated concentration of nifuroxazide for 72 hours. Cytotoxicity was measured by using MTT assay. (FIG. 1B) Subcutaneously U87 tumor bearing mice were peritoneally injected with indicated doses of nifuroxazide. Tumor size was measured using calipers at day 7 post nifuroxazide treatment.
In this example, the antitumor effect of nifuroxazide is evaluated in different tumor cells. Cells were treated with nifuroxazide for 72 hours (FIG. 1A). […] To verify the anti-tumor efficacy of nifuroxazide in vivo, animals with subcutaneous U87 tumor implants were injected in the peritoneum with vehicle, 1 mg/kg nifuroxazide and 50 mg/kg nifuroxazide. […] Tumor volume was reduced around 25% and 60% after 7 days treatment with 1 mg/kg nifuroxazide and 50 mg/kg nifuroxazide respectively (FIG. 1B).
Cells were seeded in a 96-well plate at a density of 1×104 (U87). After overnight incubation, cells were treated with only vehicle or indicated MOI of virus or indicated concentration of drugs or reagents. After 2 to 3 days of treatment cell viability was measured by MTT assay (Sigma, Canada) according to the manufacturer's instruction. […] After overnight incubation with lysis buffer, cell viability was measured at 595 nm using a plate reader (Envision 2103 Multilabel reader, Perkin Elmer).
In general terms: Tetrazolium dyes change colour on reduction, which living cells bring about.

The test system of test [2] is ICP27. Put plainly: Western blot of ICP27 in HrR3 infected U87 cells. As to conditions: 0.5 μM, 1 μM and 10 μM nifuroxazide, HrR3 MOI-3, 24 hours. The class given is cell-based, HSV-1. The procedure:
FIGS. 4A-4C show the effect of nifuroxazide on HSV-1 gene expression. (FIG. 4A) U87 cells were treated with HrR3 viruses at a MOI-3 and indicated doses of nifuroxazide. 24 hours post infected, total protein was extracted and subjected to western blot analysis. (FIG. 4B) U87 cells were treated with HrR3 at a MOI-5 and indicated concentration of nifuroxazide for 6 hours. ICP27 mRNA level was detected by RT-qPCR. (FIG. 4C) Relative mRNA level (2^−ΔΔCT) is shown. Data are presented as mean SD, *P<0.05 vs corresponding vehicle treatment.
In this example, the underlying mechanism of nifuroxazide mediated oHSV-1 replication enhancement was examined. The effect of nifuroxazide on viral immediate early gene, ICP27 and ICP4 expression was established by Western blot analysis.

In the case of `O=C1Nc2ccc3ncsc3c2/C1=C/c1c[nH]cn1` [C16, 6,8-Dihydro-8-(1H-imidazol-5-ylmethylene)-7H-pyrrolo[2,3-g]benzothiazol-7-one], the “upregulated expression of ICP27” value with ICP27 [1] (G207 infected, 1 μM C16, 1 μM Bay11 or 100 μM AG, 24 hours) worked out at 25 fold. The ICP27 expression entry in the test on ICP27 [1] (HrR3 infected BV2 cells) and in the test with ICP27 [1] (KOS infected BV2 cells) was “upregulated ICP27 expression” throughout. In the test with pSTAT3 (Tyr705) (G207 MOI of 1, 24 hours), the “upregulation of pSTAT3 (Tyr705) induced by oHSV-1” value is “significantly suppress the upregulation”. Moreover, the “STAT 3 phosphorylation, LPS treated” value in the test with pSTAT3 (Tyr705) (Lps 1 μg/ml, 24 hours) is given as “inhibition in STAT 1/3 phosphorylation”.
In the case of `O=C(N/N=C/c1ccc([N+](=O)[O-])o1)c1ccc(O)cc1` [nifuroxazide, Benzoic acid, 4-hydroxy-, [(5-nitro-2-furanyl)metylene]hydrazide], the IC50 in the test with U373 cells is roughly 23 µM. Moreover, in the test on ICP27 [2], the ICP27 expression result is “significantly increases ICP27 expression”.
